According to US20080069795A1, “Amelioration of Drug-Induced Toxicity” (The John Hopkins University, priority 2004, published 2008):

What was measured:
patients = conditions: after a single dose of cisplatin; cited from earlier work
[1] = tested on: wild type, nu/nu, CD4-/- and CD8-/- mice; test: Survival of mice after a single i.p. dose of cisplatin; type: in vivo, mouse; conditions: for survival rate: cisplatin 40 mg/kg i.p. single dose; for survival rate / survival: 72 hr
Method: All animal study protocols have been reviewed and approved by the Animal Care and Use Committee of Johns Hopkins University (IACUC), and all experiments were conducted according to NIH guidelines. T cell deficient athymic male mice (B6.Cg-Foxn1^nu, nu/nu) and their C57BL/6 wild type male littermates (6-8 wks, weighing 20-25 g) were purchased from The Jackson Laboratory (Bar Harbor, Me., USA). The two main defects of T cell deficient mice homozygous for the nu/nu spontaneous mutation (Foxn/nu, formerly Hfh11nu) are the abnormal hair growth and defective development of the thymus. Consequently, homozygous nu/nu mice lack T cells and cell-mediated immunity. Genetically matched wild type male littermates were used as controls and as donors of T cells adoptive transfer. CD4-deficient mice (B6.129S2-Cd4tm1Mak), CD8-deficient mice (B6.129S2-Cd8atm1Mak) and their wild type littermates were also purchased from The Jackson Laboratory. Mice were held under pathogen-free conditions in JHMI animal facility with air conditioning, 14 hr/10 hr of light and dark cycle and were free access to food and water during the experiments.
(§1) Cisplatin (cis-diammineplatinum II dichloride, Sigma-Aldrich, St.Louis, Mo.) was dissolved in 0.9% of saline at a concentration of 1 mg/ml. Mice were given a single i.p. injection either with cisplatin (40 mg/kg body weight) or with equal volume of saline. […] For kidney T cell immunohistochemical staining, three wild type mice in each group were sacrificed at 1 hr, 6 hr, 12 hr, 24 hr or 72 hr after cisplatin injection. All nu/nu or knockout mice and their littermates were sacrificed at 24 hr or 72 hr after the cisplatin administration for histology or for kidney cytokine array. All collected mice kidneys were either fixed in 10% buffered formalin for histology/immunohistochemistry, or snap frozen with liquid nitrogen for tissue cytokine array.
Data are expressed as mean±standard error of mean (SEM) and are compared by unpaired, two-tailed Student t tests for single comparison or by ANOVA Post Hoc test for multiple comparison. Kaplan-Meier analysis was used for mice survival analyses. Statistical significance of difference was defined when the P-value was less than 0.05.

[2] = tested on: IL-1β, KC, IFN-γ and TNF-α in the mouse kidney; test: Kidney cytokine protein array after cisplatin; type: in vivo
Method: as §1
In order to examine pro-inflammatory molecules generated by cisplatin, protein levels of IL-1β, IFN-γ, TNF-α and KC was measured in the mice kidney by using Bio-Rad Bio-Plex™ multiple cytokines array technique (Bio-Rad Laboratories Inc., Hercules, Calif.) described elsewhere in depth (19) with a simplified small template containing only above four cytokine/chemokines. Briefly, snap frozen kidney tissues were homogenized in a kit-attached cell-lysis buffer, and the homogenates were centrifuged at 12,000 rpm for 15 min at 4° C. Total protein concentration in each supernatant was determined by using a Bio-Rad Protein Assay I(it, and was adjusted to 500 μg/ml with the cell lysis buffer. Each sample was first incubated with a mixture of all types of micro-beads for 90 min at room temperature (RT) followed by an incubation with biotinylated detection antibodies for 30 min and then with a strepavidin-coupled phycoerythrin for 10 min (RT). Finally, the samples were subjected to a flow cytometric system. All acquired data was analyzed using Bio-Plex Manager™ 3.0 software (Bio-Rad) and corrected by total protein concentration (pg/mg protein).

[3] = tested on: wild type, nu/nu, CD4-/- and CD8-/- mice; test: Assessment of renal function (serum creatinine) after cisplatin; type: in vivo, mouse
Method: as §1
Blood samples were obtained from mice tails prior to (0 hr) and at 24 hr, 48 hr and 72 hr after cisplatin injection. Serum creatinine was measured as a marker of renal dysfunction by a Roche Cobas Fara automated system (Roche, Nutley, N.J., USA) using a Creatinine 557 kit (Sigma Diagnostics, St. Louis, Mo., USA).

[4] = tested on: renal myeloperoxidase (MPO) activity; test: Kidney myeloperoxidase assay after cisplatin; type: in vivo, mouse; conditions: 72 hr after cisplatin
Method: Renal myeloperoxidase (MPO) activity was measured as described by Laight et al. (18) in the nu/nu mice and wild type mice at 72 hr after receiving cisplatin to semi-quantify neutrophils and macrophages infiltration. Briefly, kidney tissue was homogenized in a solution containing 0.5% (wt/vol) hexadecyltrimethylammonium bromide dissolved in 50 mM potassium phosphate buffer (pH 6.0) and centrifuged for 30 min at 20,000 g at 4° C. Samples were incubated in a water bath at 60° C. for 2 hr and then centrifuged at 4,000 g for 12 min. The collected supernatant (40 μl) in each sample was incubated with 160 μl of a reaction solution containing 1.6 mM tetramethylbenzidine and 3 mM H2O2 diluted in 80 mM phosphate buffer (pH 5.4) in a 96-well microplate. The rate of change in absorbance at 630 nm over 5 min was measured spectrophotometrically. MPO activity was expressed as absorbance changed per minute per 100 mg of wet tissue.

[5] = tested on: CD3 positive cells in mice kidney; test: Immunohistochemical staining of T cells (CD3) in post cisplatin kidneys; type: in vivo, mouse; conditions: wild type mice
Method: as §1
In order to evaluate T cell infiltrating into post cisplatin kidneys as a potential mechanism of action, immunohistochemical staining for T cell was performed on formalin-fixed kidney tissue. Briefly, after deparaffinization and rehydration, kidney sections were immersed in 3% hydrogen peroxide methanol for 5 minutes to block endogenous peroxidase. […] All cisplatin kidney sections were examined by a pathologist and a nephrologist in a blinded fashion, and CD3 positive cells were counted in at least 10 cortico-medulary fields.

mice kidneys = test: Histological examination, semi-quantitative renal tubular injury score after cisplatin; type: in vivo, mouse; conditions: 72 hr after cisplatin 40 mg/kg, scale 0-4
Method: as §1
Formalin-fixed paraffin-embedded sections of mice kidneys tissues were cut and stained with hematoxylin and eosin (H&E). Renal tubular injury was assessed using a semi-quantitative scale. A pathologist blinded to the experiments scored the degrees of tubular injury. The magnitude of tubular epithelial cell loss, necrosis, intra-tubular debris and tubular cast formation was scored into six levels based on the percentage of affected tubules in a high power field (HPF) under light microscope. (0: none; 0.5: <10%; 1: 10 to 25%; 2: 25 to 50%; 3: 50 to 75%; 4: >75%).

[6] = wild type mice, 72 hr after cisplatin injection

## N.N.[Cl][Pt][Cl] [cisplatin, cis-diamminedichloroplatinum II]
patients
  patients who developed renal dysfunction: 25-30%
[1]; C57BL/6 wild type littermates of nu/nu mice
  survival rate: 58%
[1]; CD4-/- mice, cisplatin 40 mg/kg i.p.
  survival: 100%
[1]; CD4 deficient mice, cisplatin 40 mg/kg i.p.
  mice died by 72 hr after cisplatin treatment: 0/6
[1]; CD8-/- mice, cisplatin 40 mg/kg i.p.
  survival: 80%
[1]; CD8 deficient mice, cisplatin 40 mg/kg i.p.
  mice died by 72 hr after cisplatin treatment: 1/6
[1]; nu/nu (T cell deficient) mice
  survival rate: 100%
[1]; nu/nu mice with T cells transfer, cisplatin 40 mg/kg
  survival: 80%
[1]; nu/nu mice, cisplatin 40 mg/kg i.p.
  mice dead by 72 hr after injection: 0/12
[1]; wild type littermates of CD4-/- and CD8-/- mice, cisplatin 40 mg/kg i.p.
  survival: 50%
[1]; wild type littermates of CD4/CD8 deficient mice, cisplatin 40 mg/kg i.p.
  mice died by 72 hr after cisplatin treatment: 7/12
[1]; wild type littermates of nu/nu mice, cisplatin 40 mg/kg i.p.
  mice dead by 72 hr after injection: 6/14
[2]; nu/nu mice treated with cisplatin compared to wild type mice
  expression of pro-inflammatory molecules (IL-1β, KC, TNF-α) in the kidney: reduced expression
[2]; wild type and nu/nu mice, any time point (24 hr, 72 hr) after cisplatin
  renal IFN-γ protein levels: no increase
[2]; [6]
  renal IL-1β protein level: 53.43±2.61 pg/mg protein
  renal KC protein level: 338.30±27.04 pg/mg protein
  renal TNF-α protein level: 707.40±66.28 pg/mg protein
[3]; CD4-/- mice, 24 hr post cisplatin 40 mg/kg i.p.
  SCr: 0.50 ± 0.07 mg/dL
[3]; CD8-/- mice, 24 hr post cisplatin 40 mg/kg i.p.
  SCr: 0.67 ± 0.08 mg/dL
[3]; nu/nu mice alone, 72 hr after cisplatin 40 mg/kg
  serum creatinine: 0.58 ± 0.06 mg/dL
[3]; nu/nu mice transferred with T cells, 72 hr after cisplatin 40 mg/kg
  serum creatinine: 1.23 ± 0.11 mg/dL
[3]; nu/nu mice, 24 hr after cisplatin 40 mg/kg
  serum creatinine: 0.60 ± 0.05 mg/dL
[3]; nu/nu mice, 48 hr after cisplatin 40 mg/kg
  serum creatinine: 0.56 ± 0.05 mg/dL
[3]; wild type mice, 24 hr after cisplatin 40 mg/kg (nu/nu study)
  serum creatinine: 1.05 ± 0.11 mg/dL
[3]; wild type mice, 24 hr post cisplatin 40 mg/kg i.p. (CD4/CD8 study)
  SCr: 1.74 ± 0.25 mg/dL
[3]; wild type mice, 48 hr after cisplatin 40 mg/kg
  serum creatinine: 2.09 ± 0.49 mg/dL
[3]; wild type mice, 72 hr after cisplatin 40 mg/kg
  serum creatinine: 3.61 ± 0.32 mg/dL
[4]; nu/nu mice compared with wild type mice
  increase in renal MPO activity: significantly blunted
[4]; wild type and nu/nu mice, vs individual saline controls
  renal MPO activities: significant increase
[5]; as early as 1 hr post cisplatin, vs saline
  CD3 positive cells in the kidney: markedly increased
[5]; single dose of cisplatin, declined by 24 hr
  time of peak of kidney T cell increase: 12 h
Mice kidneys; nu/nu mice
  renal tubular injury score: 0.22±0.08
Mice kidneys; wild type mice
  renal tubular injury score: 1.44±0.15
